Patent US20090247559A1 (Exelixis, Inc., priority 2007, published 2009)

Key:
[1] = molecular target: PIM (PIM-1, PIM-2, and/or PIM-3); experiment: PIM-1, PIM-2 and PIM-3 inhibition, biochemical chemiluminescence assays (Kinase Glo, IC50 determination); conditions: Table 1 activity class; PIM refers to PIM-1, PIM-2, and/or PIM-3; read-out: PIM IC50 (Activity B)
CK2 = CK2 (Homo sapiens, UniProt P68400); experiment: CK2 inhibition, biochemical chemiluminescence holoenzyme assay (Kinase Glo, IC50 determination); conditions: Table 1 activity class; symbol given only if active; read-out: CK2 IC50 (Activity C)
Chain of CK2 (P68400 whole entry): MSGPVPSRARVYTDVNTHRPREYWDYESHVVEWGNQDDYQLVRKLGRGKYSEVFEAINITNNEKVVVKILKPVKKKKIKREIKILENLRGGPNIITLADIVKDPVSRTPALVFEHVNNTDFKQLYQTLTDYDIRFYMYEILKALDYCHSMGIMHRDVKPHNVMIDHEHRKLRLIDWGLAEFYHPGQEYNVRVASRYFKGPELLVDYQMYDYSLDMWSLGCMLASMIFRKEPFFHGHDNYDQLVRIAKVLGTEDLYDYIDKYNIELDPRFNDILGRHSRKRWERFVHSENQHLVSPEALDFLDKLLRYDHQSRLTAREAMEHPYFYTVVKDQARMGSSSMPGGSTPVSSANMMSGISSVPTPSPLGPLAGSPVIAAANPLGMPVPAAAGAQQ
Chain of CK2 (P67870 whole entry partner): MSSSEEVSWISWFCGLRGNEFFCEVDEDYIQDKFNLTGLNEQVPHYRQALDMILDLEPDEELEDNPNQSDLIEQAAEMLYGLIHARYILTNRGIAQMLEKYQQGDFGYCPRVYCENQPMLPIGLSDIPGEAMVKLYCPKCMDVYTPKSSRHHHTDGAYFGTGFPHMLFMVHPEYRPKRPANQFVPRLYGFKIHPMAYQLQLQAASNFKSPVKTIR
Experimental: Characterization of CK2 Inhibition in a Biochemical Chemiluminesence Assay (IC50 Determination):
The IC50 evaluation of compounds against CK2 was performed in a Chemiluminesence Holoenzyme assay utilizing a Greiner 384-well white medium binding white plate format. […] The assay procedure involves the compound dilution scheme followed by addition of 10 μL of the substrate twice, followed by 10 μL twice of the respective enzyme or buffer to the designated well plates and subsequent pre-incubation of the compounds. Following an incubation period of 150 minutes at ambient temperature (24-27° C.), 10 μL of Kinase Glo (Promega) was added. The luminescence was measured following a Luminescence Protocol on a Victor plate reader.

IC50 [1]	IC50 (CK2)	Structure (SMILES)
< 10 µM	< 10 µM	O=C(CCc1c[nH]cn1)Nc1ccc(-c2nc3c(oc4ccc(Br)cc43)c(=O)[nH]2)c(Cl)c1 [Compound 162, N-[4-(8-bromo-4-oxo-3,4-dihydro[1]benzofuro[3,2-d]pyrimidin-2-yl)-3-chlorophenyl]-3-(1H-imidazol-4-yl)propanamide]
< 10 µM	< 10 µM	CN1CCC(CNc2ccc(-c3nc4c(oc5ccc(Br)cc54)c(=O)[nH]3)c(Cl)c2)CC1 [Compound 163, 8-bromo-2-(2-chloro-4-{[(1-methylpiperidin-4-yl)methyl]amino}phenyl)[1]benzofuro[3,2-d]pyrimidin-4(3H)-one]
< 10 µM	< 10 µM	O=c1[nH]c(CNCc2ccncc2)nc2c1oc1ccc(Br)cc12 [Compound 165, 8-bromo-2-{[(pyridin-4-ylmethyl)amino]methyl}[1]benzofuro[3,2-d]pyrimidin-4(3H)-one]
< 10 µM	< 10 µM	NCCN1CCC(Cc2nc3c(oc4ccc(Br)cc43)c(=O)[nH]2)CC1 [Compound 168, 2-{[1-(2-aminoethyl)piperidin-4-yl]methyl}-8-bromo[1]benzofuro[3,2-d]pyrimidin-4(3H)-one]
< 10 µM	< 10 µM	COc1cccc2oc3c(=O)[nH]c(-c4ccc5[nH]nc(C)c5c4)nc3c12 [Compound 170, 2-(3-methyl-1H-indazol-5-yl)-9-(methyloxy)[1]benzofuro[3,2-d]pyrimidin-4(3H)-one]
< 10 µM	< 10 µM	COc1cccc2oc3c(=O)[nH]c(-c4ccc5[nH]nc(N)c5c4)nc3c12 [Compound 171, 2-(3-amino-1H-indazol-5-yl)-9-(methyloxy)[1]benzofuro[3,2-d]pyrimidin-4(3H)-one]
< 10 µM	< 10 µM	CCC(c1nc2c(oc3ccc(Br)cc32)c(=O)[nH]1)N1CCN(C)CC1 (stereo not drawn) [Compound 172, 8-bromo-2-[1-(4-methylpiperazin-1-yl)propyl][1]benzofuro[3,2-d]pyrimidin-4(3H)-one]
< 10 µM	< 10 µM	O=c1[nH]c(Cn2ccnc2-c2ccccc2)nc2c1oc1ccc(Br)cc12 [Compound 176, 8-bromo-2-[(2-phenyl-1H-imidazol-1-yl)methyl][1]benzofuro[3,2-d]pyrimidin-4(3H)-one]
< 10 µM	< 10 µM	CC(C)(NCc1nc2c(oc3ccc(Br)cc32)c(=O)[nH]1)C(N)=O [Compound 177, N-2-[(8-bromo-4-oxo-3,4-dihydro[1]benzofuro[3,2-d]pyrimidin-2-yl)methyl]-2-methylalaninamide]
< 10 µM	< 10 µM	CN(C)CC(C)(C)CNc1ccc(-c2nc3c(oc4ccc(Br)cc43)c(=O)[nH]2)c(Cl)c1 [Compound 179, 8-bromo-2-(2-chloro-4-{[3-(dimethylamino)-2,2-dimethylpropyl]amino}phenyl)[1]benzofuro[3,2-d]pyrimidin-4(3H)-one]
< 10 µM	< 10 µM	O=c1[nH]c(Nc2ccccc2)nc2c1oc1ccc(Br)cc12 [Compound 180, 8-bromo-2-(phenylamino)[1]benzofuro[3,2-d]pyrimidin-4(3H)-one]
< 10 µM	< 10 µM	CC(=O)N1CCN(Cc2nc3c(oc4ccc(Br)cc43)c(=O)[nH]2)CC1 [Compound 187, 2-[(4-acetylpiperazin-1-yl)methyl]-8-bromo[1]benzofuro[3,2-d]pyrimidin-4(3H)-one]
< 10 µM	< 10 µM	CC(C)(CN1CCCC1)NCc1nc2c(oc3ccc(Br)cc32)c(=O)[nH]1 [Compound 190, 8-bromo-2-{[(1,1-dimethyl-2-pyrrolidin-1-ylethyl)amino]methyl}[1]benzofuro[3,2-d]pyrimidin-4(3H)-one]
< 10 µM	< 10 µM	Cc1ccc(N2C[C@@H]3C[C@H]2CN3Cc2nc3c(oc4ccc(Br)cc43)c(=O)[nH]2)cc1 [Compound 192, 8-bromo-2-{[(1S,4S)-5-(4-methylphenyl)-2,5-diazabicyclo[2.2.1]hept-2-yl]methyl}[1]benzofuro[3,2-d]pyrimidin-4(3H)-one]
< 10 µM	< 10 µM	CN(C)CCCNc1nc2c(oc3ccc(Br)cc32)c(=O)[nH]1 [Compound 193, 8-bromo-2-{[3-(dimethylamino)propyl]amino}[1]benzofuro[3,2-d]pyrimidin-4(3H)-one]
< 10 µM	< 10 µM	O=c1[nH]c(N2CCCC2)nc2c1oc1ccc(Br)cc12 [Compound 196, 8-bromo-2-pyrrolidin-1-yl[1]benzofuro[3,2-d]pyrimidin-4(3H)-one]

IC50 [1]	IC50 (CK2)	Structure (SMILES)
< 10 µM	< 10 µM	CC(=O)N1CCC(c2nc3c(oc4ccc(Br)cc43)c(=O)[nH]2)CC1 [Compound 203, 2-(1-acetylpiperidin-4-yl)-8-bromo[1]benzofuro[3,2-d]pyrimidin-4(3H)-one]
< 10 µM	< 10 µM	O=c1[nH]c(CN2CC[C@H](O)C2)nc2c1oc1ccccc12 [Compound 204, 2-{[(3S)-3-hydroxypyrrolidin-1-yl]methyl}[1]benzofuro[3,2-d]pyrimidin-4(3H)-one]
< 10 µM	< 10 µM	CN(C)CCC(=O)N1CCC(c2nc3c(oc4ccc(Br)cc43)c(=O)[nH]2)CC1 [Compound 206, 8-bromo-2-[1-(N,N-dimethyl-beta-alanyl)piperidin-4-yl][1]benzofuro[3,2-d]pyrimidin-4(3H)-one]
< 10 µM	< 10 µM	CN(C)CCCC(=O)N1CCC(c2nc3c(oc4ccc(Br)cc43)c(=O)[nH]2)CC1 [Compound 207, 8-bromo-2-{1-[4-(dimethylamino)butanoyl]piperidin-4-yl}[1]benzofuro[3,2-d]pyrimidin-4(3H)-one]
< 10 µM	< 10 µM	O=C(c1ccc2[nH]cnc2c1)N1CCC(c2nc3c(oc4ccc(Br)cc43)c(=O)[nH]2)CC1 [Compound 208, 2-[1-(1H-benzimidazol-5-ylcarbonyl)piperidin-4-yl]-8-bromo[1]benzofuro[3,2-d]pyrimidin-4(3H)-one]
< 10 µM	< 10 µM	COCCC(=O)N1CCC(c2nc3c(oc4ccc(Br)cc43)c(=O)[nH]2)CC1 [Compound 209, 8-bromo-2-{1-[3-(methyloxy)propanoyl]piperidin-4-yl}[1]benzofuro[3,2-d]pyrimidin-4(3H)-one]
< 10 µM	< 10 µM	CN(C)CC(=O)N1CCC(c2nc3c(oc4ccc(Br)cc43)c(=O)[nH]2)CC1 [Compound 210, 8-bromo-2-[1-(N,N-dimethylglycyl)piperidin-4-yl][1]benzofuro[3,2-d]pyrimidin-4(3H)-one]
< 10 µM	< 10 µM	NCc1cc(Cl)c(-c2nc3c(oc4ccc(Br)cc43)c(=O)[nH]2)cc1F [Compound 211, 2-[4-(aminomethyl)-2-chloro-5-fluorophenyl]-8-bromo[1]benzofuro[3,2-d]pyrimidin-4(3H)-one]
< 10 µM	< 10 µM	CN1CCN(CC(C)(C)NCc2nc3c(oc4ccc(Br)cc43)c(=O)[nH]2)CC1 [Compound 212, 8-bromo-2-({[1,1-dimethyl-2-(4-methylpiperazin-1-yl)ethyl]amino}methyl)[1]benzofuro[3,2-d]pyrimidin-4(3H)-one]
< 10 µM	< 10 µM	O=c1[nH]c(NC2CCNCC2)nc2c1oc1ccc(Br)cc12 [Compound 213, 8-bromo-2-(piperidin-4-ylamino)[1]benzofuro[3,2-d]pyrimidin-4(3H)-one]
< 10 µM	< 10 µM	CC(C)(C)OC(=O)NC1CCC(c2nc3c(oc4ccc(Br)cc43)c(=O)[nH]2)CC1 (stereo not drawn) [Compound 222, 1,1-Dimethylethyl [4-(8-bromo-4-oxo-3,4-dihydro[1]benzofuro[3,2-d]pyrimidin-2-yl)cyclohexyl]carbamate]
< 10 µM	< 10 µM	CN(C)CCN1CCN(c2nc3c(oc4ccc(Br)cc43)c(=O)[nH]2)CC1 [Compound 227, 8-bromo-2-{4-[2-(dimethylamino)ethyl]piperazin-1-yl}[1]benzofuro[3,2-d]pyrimidin-4(3H)-one]
< 10 µM	< 10 µM	CN1CCC(N2CCN(c3nc4c(oc5ccc(Br)cc54)c(=O)[nH]3)CC2)CC1 [Compound 228, 8-bromo-2-[4-(1-methylpiperidin-4-yl)piperazin-1-yl][1]benzofuro[3,2-d]pyrimidin-4(3H)-one]
< 10 µM	< 10 µM	O=C(C1CCOC1)N1CCC(c2nc3c(oc4ccc(Br)cc43)c(=O)[nH]2)CC1 (stereo not drawn) [Compound 233, 8-bromo-2-[1-(tetrahydrofuran-3-ylcarbonyl)piperidin-4-yl][1]benzofuro[3,2-d]pyrimidin-4(3H)-one]
< 10 µM	< 10 µM	O=C(c1ccccc1)N1CCC(c2nc3c(oc4ccc(Br)cc43)c(=O)[nH]2)CC1 [Compound 234, 8-bromo-2-[1-(phenylcarbonyl)piperidin-4-yl][1]benzofuro[3,2-d]pyrimidin-4(3H)-one]
< 10 µM	< 10 µM	O=C(c1ccncc1)N1CCC(c2nc3c(oc4ccc(Br)cc43)c(=O)[nH]2)CC1 [Compound 236, 8-bromo-2-[1-(pyridin-4-ylcarbonyl)piperidin-4-yl][1]benzofuro[3,2-d]pyrimidin-4(3H)-one]

Structure (SMILES)	IC50 [1]	IC50 (CK2)
O=c1[nH]c(CN2C[C@H]3CNC[C@H]3C2)nc2c1oc1ccc(Br)cc12 [Compound 229, 8-bromo-2-[(3aR,6aS)-hexahydropyrrolo[3,4-c]pyrrol-2(1H)-ylmethyl][1]benzofuro[3,2-d]pyrimidin-4(3H)-one]	< 10 µM	< 10 µM
